Consider ten compounds from ChEMBL document CHEMBL1140005, “Phenylpropanoic acid derivatives bearing a benzothiazole ring as PPARdelta-selective agonists” (Bioorg Med Chem Lett, 2007).

Molecules are shown by their SMILES.

For assay [1], the target named is T1, Peroxisome proliferator-activated receptor delta (Homo sapiens, UniProt Q03181).
T1 sequence (Q03181 whole entry): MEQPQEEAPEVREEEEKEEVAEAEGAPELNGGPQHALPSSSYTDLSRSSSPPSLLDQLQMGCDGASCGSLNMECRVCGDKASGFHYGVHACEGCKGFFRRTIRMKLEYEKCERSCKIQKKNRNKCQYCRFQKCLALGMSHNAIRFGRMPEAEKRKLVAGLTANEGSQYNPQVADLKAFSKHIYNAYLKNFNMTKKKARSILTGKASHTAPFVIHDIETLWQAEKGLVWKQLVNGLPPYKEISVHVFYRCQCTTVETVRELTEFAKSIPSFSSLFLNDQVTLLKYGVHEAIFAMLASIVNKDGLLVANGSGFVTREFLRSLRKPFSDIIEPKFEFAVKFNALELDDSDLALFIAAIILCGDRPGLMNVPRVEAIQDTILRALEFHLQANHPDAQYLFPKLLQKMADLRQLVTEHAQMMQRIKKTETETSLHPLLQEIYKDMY

The target in assay [2] is T2, Peroxisome proliferator-activated receptor gamma (Homo sapiens, UniProt P37231).
T2 sequence (P37231 whole entry): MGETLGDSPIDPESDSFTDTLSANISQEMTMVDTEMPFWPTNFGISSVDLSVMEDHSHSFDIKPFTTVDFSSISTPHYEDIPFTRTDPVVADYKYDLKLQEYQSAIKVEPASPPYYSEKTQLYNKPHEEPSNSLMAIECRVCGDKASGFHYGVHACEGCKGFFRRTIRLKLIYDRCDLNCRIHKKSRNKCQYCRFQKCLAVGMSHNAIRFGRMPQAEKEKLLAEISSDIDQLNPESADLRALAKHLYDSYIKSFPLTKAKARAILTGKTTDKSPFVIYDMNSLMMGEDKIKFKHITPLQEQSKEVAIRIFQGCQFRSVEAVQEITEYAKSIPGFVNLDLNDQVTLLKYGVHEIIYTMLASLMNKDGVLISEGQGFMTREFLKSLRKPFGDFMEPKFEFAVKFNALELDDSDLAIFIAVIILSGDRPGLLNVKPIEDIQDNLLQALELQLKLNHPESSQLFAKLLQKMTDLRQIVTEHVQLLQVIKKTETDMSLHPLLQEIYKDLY
Nature of the assay: Agonist activity at human PPARgamma receptor expressed in HEK293 cells by GAL4 transactivation assay. It counts as functional, cell-based.

For assay [3], the target named is T3, Peroxisome proliferator-activated receptor alpha (Homo sapiens, UniProt Q07869).
T3 sequence (Q07869 whole entry): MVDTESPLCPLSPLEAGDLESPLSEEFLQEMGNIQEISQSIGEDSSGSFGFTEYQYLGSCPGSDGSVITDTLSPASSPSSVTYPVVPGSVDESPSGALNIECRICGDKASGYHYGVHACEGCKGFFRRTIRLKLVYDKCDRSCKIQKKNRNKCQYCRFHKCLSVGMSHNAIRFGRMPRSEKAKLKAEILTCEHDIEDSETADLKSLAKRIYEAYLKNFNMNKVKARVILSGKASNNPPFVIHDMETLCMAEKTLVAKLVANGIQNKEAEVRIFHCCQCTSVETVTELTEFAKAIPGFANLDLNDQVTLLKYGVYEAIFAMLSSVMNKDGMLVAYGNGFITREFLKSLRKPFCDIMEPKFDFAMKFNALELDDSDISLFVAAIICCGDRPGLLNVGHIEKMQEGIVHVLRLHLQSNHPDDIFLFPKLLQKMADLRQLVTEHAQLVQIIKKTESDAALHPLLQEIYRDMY
Kind of assay: Agonist activity at human PPARalpha receptor expressed in HEK293 cells by GAL4 transactivation assay. Type of assay: functional, cell-based.

On to `O=C(O)CCc1ccc(OCCN(Cc2ccccc2)c2nc3ccc(Cl)cc3s2)cc1`, for which the EC50 in assay [1] is 1360 nM.
Regarding `Cc1ccc2nc(N(CCOc3ccc(CCC(=O)O)cc3)Cc3ccccc3)sc2c1`, the EC50 in assay [1] is 2610 nM.
As to `O=C(O)CCc1ccc(OCCN(Cc2ccc(C(F)(F)F)cc2)c2nc3ccccc3s2)cc1`, the EC50 in assay [2] was 3690 nM; in assay [1], 940 nM; in assay [3], 4460 nM.
The compound `O=C(O)CCc1ccc(OCCN(Cc2cccs2)c2nc3ccccc3s2)cc1` had a concentration giving a half-maximal response (EC50) in assay [1] of 1740 nM.
Still for that read-out and setting: then `CCc1cc(OCCN(Cc2ccccc2)c2nc3ccccc3s2)ccc1CCC(=O)O`, with 2970 nM.
Take `O=C(O)CCc1ccc(OCCCN(Cc2ccccc2)c2nc3ccccc3s2)cc1`: the EC50 in assay [1] worked out at 2550 nM.
With `Cc1cc(CCC(=O)O)ccc1OCCCN(Cc1cccs1)c1nc2ccc(Cl)cc2s1`, a half-maximal response in assay [1] (EC50) required 390 nM.
With `CC(C)(C)c1ccc(CN(CCOc2ccc(CCC(=O)O)cc2)c2nc3ccccc3s2)cc1`, the results for the EC50 in assay [2] and in assay [1] were 6340 nM and 4880 nM, respectively.
In the case of `O=C(O)CCc1ccc(OCCN(Cc2ccccc2)c2nc3ccccc3s2)cc1`, in assay [1], the EC50 came out at 2810 nM.
In the case of `Cc1cc(OCCN(Cc2ccccc2)c2nc3ccccc3s2)ccc1CCC(=O)O`, the EC50 in assay [1] worked out at 1170 nM.

By EC50 is commonly meant the concentration giving half of the maximal effect.
